Patent US7015209B2, “Hair-growing agent” (Kyowa Hakko Kogyo Co., Ltd., priority 1999, dated 2006)
Read-outs that look alike come from different tables or passages of the source. Blank lines part the entries; values can stand above or below the molecule they belong to.

What was measured:
[1] = test system: mouse hair follicle epithelial cells; assay: Cell growth-promoting effect on cultured mouse hair follicle epithelial cells (MTT); type: cell-based
Experimental: Hair follicle epithelial cells were separated and cultured according to a modification of the method of Tanigaki, et al. [Archives of Dermatological Research, 284, 290–296 (1992)].
The skin on the back of a 4-days-old C3H mouse (Charles River Japan, Inc.) was cut off and treated with MEM (Eagle's Minimum Essential Medium) containing 500 units/ml Dispase (Godo Shusei Co., Ltd.) and 5% fetal calf serum (FCS) at 4° C. for 16 hours.
Then, the epidermis was stripped from the skin section, and the obtained dermis layer was treated with DMEM (Dulbecco's modified Eagle Medium) containing 0.25% Collagenase N-2 (Nitta Gelatin Co., Ltd.) and 10% FCS at 37° C. for one hour to obtain a dermis suspension. The dermis suspension was filtered through a 212-μm nylon mesh (Nippon Rikagaku Kikai Co., Ltd.) and the filtrate was centrifuged at 1000 rpm for 5 minutes to obtain pellets containing hair follicle tissue. To the pellets was added calcium/magnesium-free PBS (Dulbecco's Phosphate-Buffered Saline) and the pellets were suspended therein using a pipette. The resulting suspension was allowed to stand for 15 minutes to precipitate hair tissue. The same procedure as above (addition of calcium/magnesium-free PBS, suspending by use of a pipette, and precipitation by allowing suspension to stand for 15 minutes) was repeated three times using the obtained hair tissue.
Then, the hair tissue was treated with a solution containing 0.1% ethylenediaminetetraacetic acid (EDTA) and 0.25% trypsin (Gibco) at 37° C. for 5 minutes. To the resulting mixture was added DMEM containing 10% FCS to prepare a hair tissue cell suspension having a density of 3×10^5 cells/ml. The hair tissue cell suspension was put into wells of a 24-well collagen-coated plate (Iwaki Glass Co., Ltd.) in an amount of 1 ml/well, followed by culturing in 5% CO2 at 37° C. for 24 hours.
After the culturing, the medium was replaced by a medium prepared by adding to MCDB153 medium (Kyokuto Pharmaceutical Ind. Co., Ltd.) DMSO containing 5 mg/l bovine insulin (Sigma Chemical Co., Ltd.); 5 μg/l mouse epidermal growth factor (EGF) (Takara Shuzo Co., Ltd.); 40 mg/l bovine pituitary extract (Kyokuto Pharmaceutical Ind. Co., Ltd.); 10 mg/l human transferrin (Sigma Chemical Co., Ltd.); 0.4 mg/l hydrocortisone (Sigma Chemical Co., Ltd.); 0.63 μg/l progesterone (Collaborative Research Co.); 14 mg/l O-phosphoethanolamine (Sigma Chemical Co., Ltd.); 6.1 mg/l ethanolamine (Sigma Chemical Co., Ltd.); 50 U/ml penicillin (Wako Pure Chemical Industries, Ltd.); 50 μg/ml streptomycin (Wako Pure Chemical Industries, Ltd.); monooleoyl lysophosphatidic acid, dioleoyl phosphatidic acid (Sigma Chemical Co., Ltd.), didecanoyl phosphatidic acid (Sigma Chemical Co., Ltd.), dimyristoyl phosphatidic acid (Funakoshi Co., Ltd.), dipalmitoyl phosphatidic acid (Wako Pure Chemical Industries, Ltd.), dilauroyl phosphatidic acid (Funakoshi Co., Ltd.) or egg yolk-derived phosphatidic acid (Sigma Chemical Co., Ltd.); and/or proanthocyanidin, a protein kinase C-specific inhibitor or tocopherol (added in an amount of 1/100 by volume), followed by further culturing in 5% CO2 at 37° C. for 5 days. During the culturing, the medium was replaced with a fresh one every other day.
As a control, the cells were cultured in the same medium as above except that DMSO alone was added in an amount of 1/100 by volume in place of DMSO containing lysophosphatidic acid or phosphatidic acid, and/or proanthocyanidin, a protein kinase C-specific inhibitor or tocopherol.
The degree of cell growth was measured according to the method using MTT [3-(4,5-dimethylthiazol-2-yl)-2,5-diphenyl tetrazolium bromide] [Experimental Medicine (extra number), Bio Manual UP Series, Experimental Method of Cell Culture for Molecular Biological Studies, p. 89–92, Yodosha (1995)].
To each well of the 24-well microplate (2 cm^2/well) was added a PBS solution of MTT (5 mg/ml) in an amount of 1/10 by volume based on 1 ml of the culture. […]

protein kinase C (PKC) = assay: Measurement of PKC-inhibiting activity (PKC-IC50); conditions: for IC50: read-out: PKC-IC50, crude enzyme partially purified from rat brain
Experimental: (1) Method for Measuring PKC-Inhibiting Activity
Measurement of PKC-inhibiting activity can be carried out in a manner similar to the method of Kikkawa, et al. [Journal of Biological Chemistry, 257, 13341 (1982)].
To 250 μl of an aqueous solution comprising 2.5 μmol of magnesium acetate, 50 μg of histone Type IIIS (Sigma Chemical Co., Ltd.), 20 μg of phosphatidylserine, 0.8 μg. of diolein, 25 nmol of calcium chloride, 5 μg of a crude enzyme (partially purified from rat brain by the method of Kikkawa, et al.) and 5 μmol of Tris-HCl buffer (pH 7.5) is added the above aqueous solution containing a test compound (10 μl), followed by incubation at 30° C. for 3 minutes. After the incubation, 1.25 nmol of [γ-^32P]ATP (5–10×10^3 cpm/nmol) is added thereto, followed by phosphorylation reaction at 30° C. for 3 minutes. The reaction is terminated by addition of 25% trichloroacetic acid and the reaction mixture is filtered through a cellulose acetate membrane (pore size: 0.45 μm, Toyo Filter Co., Ltd.) After the membrane is washed four times with 5% trichloroacetic acid, the radioactivity remaining on the membrane is measured as a test compound value. Separately, the above procedure is carried out in the same manner without addition of the test compound and the radioactivity is measured as a control value.
The molar concentration of the test compound giving a test compound value which is 50% of the control value is regarded as the 50% PKC inhibition constant (PKC-IC50).

protein kinase A (PKA) = protein kinase A (PKA) (Bos taurus, UniProt P00517); assay: Measurement of PKA-inhibiting activity (PKA-IC50); type: biochemical; conditions: crude enzyme partially purified from calf heart
Source text: (2) Method for Measuring PKA-Inhibiting Activity

[2] = Table 2 (1), 30 μmol/l alone, 5 days culture
[3] = Table 2 (2), 10 μmol/l alone, 5 days culture
[4] = Table 2 (1), 3 μmol/l alone, 5 days culture

Molecule: Oc1cc(O)c2c(c1)O[C@H](c1ccc(O)c(O)c1)[C@H](O)[C@H]2c1c(O)cc(O)c2c1O[C@H](c1ccc(O)c(O)c1)[C@H](O)C2 [Procyanidin B-2, epicatechin-(4β→8)-epicatechin]
- Relative cell growth rate based on the control as 100 [1, 2]: 260
- Relative cell growth rate based on the control as 100 [1, 3]: 251

Molecule: CCCCCCCCCCCCCCCC(=O)OC[C@H](COP(=O)(O)O)OC(=O)CCCCCCCCCCCCCCC [Dipalmitoyl phosphatidic acid, dipalmitoyl phosphatidic acid]
- Relative cell growth rate based on the control as 100 ([1]; Table 2 (2), 20 μmol/l alone): 314

Molecule: CCCCCCCC/C=C\CCCCCCCC(=O)OC[C@@H](O)COP(=O)(O)O [Monooleoyl lysophosphatidic acid, monooleoyl lysophosphatidic acid]
- Relative cell growth rate based on the control as 100 [1, 4]: 200

Molecule: CCCCCCCC/C=C\CCCCCCCC(=O)OC[C@H](COP(=O)(O)O)OC(=O)CCCCCCC/C=C\CCCCCCCC [Dioleoyl phosphatidic acid, dioleoyl phosphatidic acid]
- Relative cell growth rate based on the control as 100 [1, 3]: 255

- PKA-IC50/PKC-IC50 (protein kinase C (PKC)): > 4.3
- IC50 (protein kinase C (PKC)): 230 µM
- IC50 (protein kinase A (PKA)): > 1000 µM
Molecule: CCCCCCCCCCCCCCCC(=O)OC(CC(=O)[O-])C[N+](C)(C)C (racemic) [Palmitoyl-DL-carnitine]

Molecule: Cc1c(C)c2c(c(C)c1O)CCC(C)(CCCC(C)CCCC(C)CCCC(C)C)O2 (racemic) [dl-α-Tocopherol]
- Relative cell growth rate based on the control as 100 [1, 2]: 150
- Relative cell growth rate based on the control as 100 ([1]; Table 2 (2), 30 μmol/l alone): 199

Molecule: CCCCCCCCCCCC(=O)OC[C@H](COP(=O)(O)O)OC(=O)CCCCCCCCCCC [Dilauroyl phosphatidic acid, dilauroyl phosphatidic acid]
- Relative cell growth rate based on the control as 100 [1, 3]: 379

Molecule: CCCCCCCCCCCCCC(=O)OCC(COP(=O)(O)O)OC(=O)CCCCCCCCCCCCC (stereo not drawn) [Dimyristoyl phosphatidic acid, dimyristoyl phosphatidic acid]
- Relative cell growth rate based on the control as 100 [1, 3]: 361

Molecule: Polymyxin B
- PKA-IC50/PKC-IC50 (protein kinase C (PKC)): > 384
- IC50 (protein kinase C (PKC)): 2.6 µM
- IC50 (protein kinase A (PKA)): > 1000 µM

Molecule: CCCCCCCCCC(=O)OCC(COP(=O)(O)O)OC(=O)CCCCCCCCC (stereo not drawn) [Didecanoyl phosphatidic acid, didecanoyl phosphatidic acid]
- Relative cell growth rate based on the control as 100 ([1]; Table 2 (2), 1 μmol/l alone): 168

Molecule: Calphostin C
- PKA-IC50/PKC-IC50 (protein kinase C (PKC); ratio of PKA-IC50 to PKC-IC50): >1000 ∥mol/l
- IC50 (protein kinase C (PKC)): 0.05 µM
- IC50 (protein kinase A (PKA)): > 50 µM
- Relative cell growth rate based on the control as 100 [1, 4]: 180
- Relative cell growth rate based on the control as 100 ([1]; Table 2 (2), 0.01 μmol/l alone): 172
